The subject of series [1] is human ureteral smooth muscle cell (hUSMC). Description: High throughput screening (HTS) of hUSMC relaxation (p-MLC vs unphosphorylated MLC, single-cell analysis). The series is classed as cell-based. Conditions: for relaxation of smooth muscle cells within a cell population: 8 hour exposure; for relaxation of smooth muscle (in words): hUSMC, prolonged exposure (8 hours). The text has this:
An HTS test was developed to quantify the contractile state of a human ureteral smooth muscle cell (hUSMC). Quantification of hUSMC relaxation was achieved by performing single-cell analysis using a computer vision (CellProfiler, Broad Institute, MA) approach that related each cell's fluorescence intensity to its state of muscle relaxation (comparing phosphorylated myosin with unphosphorylated myosin).
Primary hUMSCs were harvested from patients and cultured. There were about 10,000 cells per well, and 100 μL of media per well. Each well represented one experiment, and 250 nL of drug per well was delivered with DMSO (0.25% DMSO by volume).
In the test of this example, single cell analysis was performed on each cell (identified via computer vision) after exposure to various drugs which enable relaxation in order to correlate each cell's contractile state to the therapeutic compound, exposure time, and dose.
These correlations were determined by analyzing the fluorescent intensity of smooth muscle cells, which is related to the contractile state of the muscles. When a smooth muscle cell is signaled to contract, phosphorylation of myosin light-chain (p-MLC) occurs, which is a biomarker of muscle contraction. Conversely, when smooth muscle is left unphosphorylated (MLC), muscle relaxation occurs. Therefore, smooth muscle contraction can be computed from the proportion of p-MLC to unphosphorylated-MLC.
The tested agents included those in the following table.

For series [2], the system named is hUSMCs. In kind it is cell-based. Particulars: human.
Series [3] concerns whole porcine ureters. The series can be described thus: Bench top ex vivo model, phenylephrine-stimulated contractions, intraluminal delivery. More on the design: species or system pig. Here is the method: An ex vivo bench top model was designed to permit the testing of whole ureteral segments. Flow through the ureteral segments was regulated, and ranged from 0.25 mL/minute to 60 mL/minute. […] The intraluminal reservoirs contained either preheated saline buffer or dilutions of any candidate therapeutic agent.
The pounds per square inch (PSI) pressure readings were obtained using a fiber-optic pressure catheter.
For this test, a ureter was prepared through intraluminal delivery of saline (Krebs-Henseleit Buffer) (BUF) only (region “i”). The experiment then was initiated and phenylephrine [10 mM] was added to the Krebs infusion to stimulate baseline peristaltic contractions seen in patients with urinary stones (region “ii”). […] [1 μM]
Cumulative ureteral contractions were plotted over the course of the entire experiment, and are depicted at FIG. 8. For this test, a ureter was prepared through intraluminal delivery of saline (BUF) only (region “i”). The experiment was initiated and phenylephrine [10 mM] was added to the Krebs infusion to stimulate baseline peristaltic contractions seen in patients with urinary stones (region “ii”).

How the values of series [4] were obtained: A commercially available surgical lubricant (SURGILUBE® lubricant) was combined with a surfactant. The surfactant was Polysorbate 20, and 0.6 mL of the Polysorbate 20 was added to 19.4 mL of the surgical lubricant.
However, more surfactant may be added to increase drug concentration, e.g., up to about 500 μM.

The subject of series [5] is hUSMCs. Conditions: for Percentages of Cells that Remained Contracted After Treatment: Nifedipine 0 μM.
Series [6] relates to human ureteral smooth muscle cell (hUSMC). Description: Cell viability of hUSMC in the HTS of Example 1.
Procedure: Eight-point dosing curves were performed starting at 25 μM. […] The results were collected from three separate screening runs across three unique primary hUSMC lines (derived from three separate patients).
These relaxation percentages were derived after an 8 hour exposure.

Like-named read-outs stand apart in the source and are kept apart here.

As for `C[C@@H](N)[C@H]1CC[C@H](C(=O)Nc2ccncc2)CC1` [Y-27632], the “relaxation of smooth muscle cells within a cell population” value in series [1] (3.13 μM) came to 20%. In addition, the “hUSMC population relaxed (greatest effect, FIG. 1)” value in series [1] (after an 8 hour exposure) is listed as “about 40%”. The “relaxation of smooth muscle (in words)” value in series [1] (listed as ROCK Y-27632) was “significant relaxation of smooth muscle”; in series [1] (listed as Y-27632 (ROCK)), “relatively significant cell relaxation”. Besides, the figures for the “Percentages of Cells that Retained Viability” value in series [2] (3.13 μM), in series [2] (25 μM) and in series [2] (50 μM) were 110%, 100% and 95%, respectively. Further, the “reduction in contractile frequency” value in series [3] (10 μM intraluminally) amounted to 3 ×. The “contractile activity of ureter (in words)” value in series [3] (10 μM intraluminally, with 10 mM phenylephrine, listed as Y27632 (ROCK)) is given as “rapid relaxation of the ureter”. In addition, in series [3] (10 μM with 10 mM phenylephrine, region iii), the “frequency of peristaltic activity (in words)” value was “significant decrease in frequency”. Also, the “reduction in the slope of linear regression of cumulative contractions” value in series [3] (10 μM, region iii vs other regions of FIG. 8) is recorded as at least 3 ×. Further, in series [3] (phenylephrine 10 mM and saline buffer continued), the “effect after removal from the infusion (region iv)” value is recorded as “the effects were reversed”. Moreover, the “actual drug retention in the surgical lubricant/surfactant mixture” value in series [4] was “about 200 μM”. Further, the relaxation entry in series [5] (25 μM alone, 8 hour exposure) is on record as “about 45%”. Also, the “Percentages of Cells that Remained Contracted After Treatment” value worked out at 81% in series [5] (ROCK 1.56 μM); 71% in series [5] (ROCK 3.13 μM); 67% in series [5] (ROCK 6.25 μM); 59% in series [5] (ROCK 12.50 μM); 54% in series [5] (ROCK 25.00 μM); 50% in series [5] (ROCK 50.00 μM). In addition, the “Percentages of Cells that Remained Contracted After Treatment” value in series [5] (ROCK […]) was found to be 86%.
`CCOc1ccccc1OCCN[C@H](C)Cc1ccc(OC)c(S(N)(=O)=O)c1` [Tamsulosin] yielded a cell population relaxation in series [1] (6.25 μM or greater) of around 20%. In addition, the “relaxation of smooth muscle (in words)” value in series [1] is reported as “demonstrated efficacy at certain doses”.
As to `CCCc1nc(C)c2c(=O)[nH]c(-c3cc(S(=O)(=O)N4CCN(CC)CC4)ccc3OCC)nn12` [Vardenafil], in series [1] (1.56 μM or greater), the cell population relaxation is recorded as around 20%.
Turning to `Cc1ccc(-c2cc(C(F)(F)F)nn2-c2ccc(S(N)(=O)=O)cc2)cc1` [Celecoxib], the “relaxation of smooth muscle cells within a cell population” value in series [1] (12.5 μM) was found to be 20%; in series [1] (25 μM), 30%. Moreover, the “toxicity to the tested cells (false hit)” value in series [6] is given as “toxicity killed the tested cells”.

Values taken from patent US12109301B2, “Formulations, methods, and systems for treating genitourinary conditions” (Massachusetts Institute of Technology, priority 2017, dated 2024).
